According to ChEMBL document CHEMBL4819142, “Synthesis of propargylamine mycophenolate analogues and their selective cytotoxic activity towards neuroblastoma SH-SY5Y cell line” (Bioorg Med Chem Lett, 2021):

How the values were obtained:
[1] = Cytotoxicity against human […] cells assessed as growth inhibition measured by SRB assay; format: cell-based
FaDu = assay: Cytotoxicity against human FaDu cells assessed as growth inhibition measured by SRB assay; format: functional, cell-based
A549 = assay: Cytotoxicity against human A549 cells assessed as growth inhibition measured by SRB assay; format: functional, cell-based
[2] = Cytotoxicity against human KKUM213 cells assessed as growth inhibition measured by SRB assay; format: functional, cell-based; settings: KKU-M213
HT-29 = assay: Cytotoxicity against human HT-29 cells assessed as growth inhibition measured by SRB assay; format: functional, cell-based
SH-SY5Y = assay: Cytotoxicity against human SH-SY5Y cells assessed as growth inhibition measured by SRB assay; format: functional, cell-based
MDA-MB-231 = assay: Cytotoxicity against human MDA-MB-231 cells assessed as growth inhibition measured by SRB assay; format: functional, cell-based

## COC(=O)CC/C(C)=C/Cc1c(O)c2c(c(C)c1OC)COC2=O
[1]
  IC50: 5.82 µM
FaDu
  IC50: 6.15 µM
A549
  IC50: 0.82 µM
[2]
  IC50: 7.45 µM
HT-29
  IC50: 23.7 µM
SH-SY5Y
  IC50: 0.26 µM
MDA-MB-231
  IC50: 9.62 µM

## C=CCN(CC#CCOc1c(C/C=C(\C)CCC(=O)OC)c(OC)c(C)c2c1C(=O)OC2)CC=C
[1]
  IC50: 36.4 µM
FaDu
  IC50: > 50 µM
A549
  IC50: 43.5 µM
[2]
  IC50: > 50 µM
HT-29
  IC50: > 50 µM
SH-SY5Y
  IC50: 36.4 µM
MDA-MB-231
  IC50: > 50 µM

## COC(=O)CC/C(C)=C/Cc1c(OC)c(C)c2c(c1OCC#CCN1CCN(c3ccccc3)CC1)C(=O)OC2
[1]
  IC50: > 50 µM
FaDu
  IC50: > 50 µM
A549
  IC50: 22 µM
[2]
  IC50: > 50 µM
HT-29
  IC50: > 50 µM
SH-SY5Y
  IC50: 9.14 µM
MDA-MB-231
  IC50: > 50 µM

## COC(=O)CC/C(C)=C/Cc1c(OC)c(C)c2c(c1OCC#CCN1CCC(C(=O)O)CC1)C(=O)OC2
[1]
  IC50: > 50 µM
FaDu
  IC50: > 50 µM
A549
  IC50: > 50 µM
[2]
  IC50: > 50 µM
HT-29
  IC50: > 50 µM
SH-SY5Y
  IC50: 47.2 µM
MDA-MB-231
  IC50: > 50 µM

## COC(=O)CC/C(C)=C/Cc1c(OC)c(C)c2c(c1OCC#CCN1CCN(C(=O)C3COc4ccccc4O3)CC1)C(=O)OC2 (stereo not given)
[1]
  IC50: > 50 µM
FaDu
  IC50: > 50 µM
A549
  IC50: > 50 µM
[2]
  IC50: > 50 µM
HT-29
  IC50: > 50 µM
SH-SY5Y
  IC50: > 50 µM
MDA-MB-231
  IC50: > 50 µM

## COC(=O)CC/C(C)=C/Cc1c(OC)c(C)c2c(c1OCC#CCN1CCN(C(C)=O)CC1)C(=O)OC2
[1]
  IC50: > 50 µM
FaDu
  IC50: > 50 µM
A549
  IC50: > 50 µM
[2]
  IC50: > 50 µM
HT-29
  IC50: > 50 µM
SH-SY5Y
  IC50: > 50 µM
MDA-MB-231
  IC50: > 50 µM

## COC(=O)CC/C(C)=C/Cc1c(OC)c(C)c2c(c1OCC#CCN1CCN(C(c3ccccc3)c3ccc(Cl)cc3)CC1)C(=O)OC2 (stereo not given)
[1]
  IC50: > 50 µM
FaDu
  IC50: > 50 µM
A549
  IC50: 29.1 µM
[2]
  IC50: > 50 µM
HT-29
  IC50: > 50 µM
SH-SY5Y
  IC50: 9.9 µM
MDA-MB-231
  IC50: > 50 µM

## Cc1c2ccncc2c(C)c2c1[nH]c1ccccc12 [ELLIPTECINE]
[1]
  IC50: 1.89 µM
FaDu
  IC50: 1.85 µM
A549
  IC50: 1.16 µM
[2]
  IC50: 1.97 µM
HT-29
  IC50: 1.95 µM
SH-SY5Y
  IC50: 2.13 µM
MDA-MB-231
  IC50: 2.03 µM

## COC(=O)CC/C(C)=C/Cc1c(OC)c(C)c2c(c1OCC#CCN1CCC(C(=O)OC)CC1)C(=O)OC2
[1]
  IC50: > 50 µM
FaDu
  IC50: > 50 µM
A549
  IC50: 40.5 µM
[2]
  IC50: > 50 µM
HT-29
  IC50: > 50 µM
SH-SY5Y
  IC50: 41.2 µM
MDA-MB-231
  IC50: > 50 µM

## COC(=O)CC/C(C)=C/Cc1c(OC)c(C)c2c(c1OCC#CCN1CCN(Cc3ccc4c(c3)OCO4)CC1)C(=O)OC2
[1]
  IC50: > 50 µM
FaDu
  IC50: > 50 µM
A549
  IC50: 45.5 µM
[2]
  IC50: > 50 µM
HT-29
  IC50: > 50 µM
SH-SY5Y
  IC50: 34.8 µM
MDA-MB-231
  IC50: > 50 µM

## COC(=O)CC/C(C)=C/Cc1c(OC)c(C)c2c(c1OCC#CCN1CCN(c3ccc(O)cc3)CC1)C(=O)OC2
[1]
  IC50: > 50 µM
FaDu
  IC50: > 50 µM
A549
  IC50: > 50 µM
[2]
  IC50: > 50 µM
HT-29
  IC50: > 50 µM
SH-SY5Y
  IC50: 46.1 µM
MDA-MB-231
  IC50: > 50 µM

## COC(=O)CC/C(C)=C/Cc1c(OC)c(C)c2c(c1OCC#CCN1CCN(C(c3ccc(F)cc3)c3ccc(F)cc3)CC1)C(=O)OC2
[1]
  IC50: > 50 µM
FaDu
  IC50: > 50 µM
A549
  IC50: 34.1 µM
[2]
  IC50: > 50 µM
HT-29
  IC50: > 50 µM
SH-SY5Y
  IC50: 25.8 µM
MDA-MB-231
  IC50: > 50 µM

## COC(=O)CC/C(C)=C/Cc1c(OC)c(C)c2c(c1OCC#CCN1CCN(c3ccccc3OC)CC1)C(=O)OC2
[1]
  IC50: > 50 µM
FaDu
  IC50: > 50 µM
A549
  IC50: > 50 µM
[2]
  IC50: > 50 µM
HT-29
  IC50: > 50 µM
SH-SY5Y
  IC50: 43.6 µM
MDA-MB-231
  IC50: > 50 µM

## C#CCOc1c(C/C=C(\C)CCC(=O)OC)c(OC)c(C)c2c1C(=O)OC2
[1]
  IC50: 25.2 µM
FaDu
  IC50: 15.2 µM
A549
  IC50: 31.8 µM
[2]
  IC50: 35.7 µM
HT-29
  IC50: 28.8 µM
SH-SY5Y
  IC50: 3.07 µM
MDA-MB-231
  IC50: 49.2 µM

## COC(=O)CC/C(C)=C/Cc1c(OC)c(C)c2c(c1OCC#CCN1CCN(Cc3ccc(Cl)cc3)CC1)C(=O)OC2
[1]
  IC50: > 50 µM
FaDu
  IC50: > 50 µM
A549
  IC50: > 50 µM
[2]
  IC50: > 50 µM
HT-29
  IC50: > 50 µM
SH-SY5Y
  IC50: 31.2 µM
MDA-MB-231
  IC50: > 50 µM
